What was measured:
[1] = system: Mycobacterium tuberculosis Erdman (autoluminescent); experiment: total FIC50 (Loewe) at 50% inhibition, three-drug combination (log2); higher = more antagonistic
Experimental: (§1)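 DiaMOND equipotent three-drug combination dose responses (10 doses, 1.5- or 2-fold spacing, centred on IC90) against autoluminescent M. tuberculosis Erdman in 8 in vitro models. Read-out is OD600, or luminescence for the intracellular and dormancy models, normalised to untreated wells. Hill-fit Einf, AUC25 and GRinf are potency metrics; FIC50 and FIC90 are total Loewe fractional inhibitory concentrations as log2 (negative = synergy).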

[2] = system: Mycobacterium tuberculosis Erdman (autoluminescent); experiment: AUC25, normalised area under dose response up to IC25 (three-drug combination) (fraction (0-1)); higher = more potent at low dose
Experimental: as §1

[3] = system: Mycobacterium tuberculosis Erdman (autoluminescent); experiment: total FIC90 (Loewe) at 90% inhibition, three-drug combination (log2); higher = more antagonistic
Experimental: as §1

[4] = system: Mycobacterium tuberculosis Erdman (autoluminescent); experiment: Einf, fitted maximum growth inhibition of three-drug combination (fraction); higher = stronger maximal inhibition
Experimental: as §1

[5] = system: Mycobacterium tuberculosis Erdman (autoluminescent); experiment: GRinf, maximum normalised growth rate inhibition (three-drug combination) (unitless (-1 to 1)); higher = less effect (negative = killing)
Experimental: as §1

CC[C@@H](CO)NCCN[C@@H](CC)CO [ethambutol] + O=[N+]([O-])c1cn2c(n1)OC[C@@H](OCc1ccc(OC(F)(F)F)cc1)C2 [pretomanid] + CO[C@H]1/C=C/O[C@@]2(C)Oc3c(C)c(O)c4c(O)c(c(/C=N/N5CCN(C)CC5)c(O)c4c3C2=O)NC(=O)/C(C)=C\C=C\[C@H](C)[C@H](O)[C@@H](C)[C@@H](O)[C@@H](C)[C@H](OC(C)=O)[C@@H]1C [rifampicin]
Conditions	AUC25, [2]	Einf, [4]	GRinf, [5]	total FIC50, [1]	total FIC90, [3]
in vitro model: acidic pH 5.7, time point: constant (~7 days, model-specific)	0.116	0.896	-0.0878	-0.207	–
in vitro model: acidic pH 5.7, time point: terminal (~4-5 doublings, model-specific)	0.0422	0.965	-0.0884	-0.118	-0.7
in vitro model: intracellular J774, time point: constant = terminal	–	0.979	-0.423	–	-2.45

Conditions	AUC25, [2]	Einf, [4]	GRinf, [5]	total FIC50, [1]	total FIC90, [3]
in vitro model: butyrate, time point: constant (~7 days, model-specific)	0.0766	0.908	0.0166	0.153	–
in vitro model: butyrate, time point: terminal (~4-5 doublings, model-specific)	0.075	0.968	-0.0125	-0.0702	-0.43
in vitro model: cholesterol 0.05 mM, time point: constant (~7 days, model-specific)	0.123	0.753	-0.232	0.599	–
in vitro model: cholesterol 0.05 mM, time point: terminal (~4-5 doublings, model-specific)	0.0708	0.852	0.216	0.863	–
in vitro model: cholesterol-high 0.2 mM, time point: constant (~7 days, model-specific)	0.0614	0.857	-0.0797	1.05	–
in vitro model: cholesterol-high 0.2 mM, time point: terminal (~4-5 doublings, model-specific)	0.0471	0.992	-0.568	1.06	0.833
in vitro model: dormancy (butyrate + nitrate, low O2), time point: constant (~7 days, model-specific)	0.102	0.883	0.315	-0.71	–
in vitro model: dormancy (butyrate + nitrate, low O2), time point: terminal (~4-5 doublings, model-specific)	0.085	0.993	-0.16	-0.599	-0.673
in vitro model: standard 7H9 glycerol, time point: constant = terminal	0.0649	0.919	0.0317	-0.222	–
in vitro model: valerate, time point: constant (~7 days, model-specific)	0.0577	0.876	0.0174	0.363	–
in vitro model: valerate, time point: terminal (~4-5 doublings, model-specific)	0.033	0.931	0.0322	0.443	-0.575

CC[C@@H](CO)NCCN[C@@H](CC)CO [ethambutol] + O=[N+]([O-])c1cn2c(n1)OC[C@@H](OCc1ccc(OC(F)(F)F)cc1)C2 [pretomanid] + NC(=O)c1cnccn1 [pyrazinamide]
Conditions	AUC25, [2]	Einf, [4]	GRinf, [5]	total FIC50, [1]	total FIC90, [3]
in vitro model: acidic pH 5.7, time point: constant (~7 days, model-specific)	0.122	0.735	-0.0977	-0.536	–
in vitro model: acidic pH 5.7, time point: terminal (~4-5 doublings, model-specific)	0.091	0.962	-0.384	0.211	-1.13
in vitro model: intracellular J774, time point: constant = terminal	–	0.983	-0.544	–	-0.753

Conditions	AUC25, [2]	Einf, [4]	GRinf, [5]	total FIC50, [1]	total FIC90, [3]
in vitro model: butyrate, time point: constant (~7 days, model-specific)	0.0885	0.898	0.0512	0.0336	–
in vitro model: butyrate, time point: terminal (~4-5 doublings, model-specific)	0.0789	0.949	0.0472	0.0804	0.185
in vitro model: cholesterol 0.05 mM, time point: constant (~7 days, model-specific)	0.13	0.709	-0.334	–	–
in vitro model: cholesterol 0.05 mM, time point: terminal (~4-5 doublings, model-specific)	0.129	0.723	-0.277	0.522	–
in vitro model: cholesterol-high 0.2 mM, time point: constant (~7 days, model-specific)	0.0837	0.876	-0.121	0.648	–
in vitro model: cholesterol-high 0.2 mM, time point: terminal (~4-5 doublings, model-specific)	0.0682	0.992	-0.572	0.65	1.05
in vitro model: dormancy (butyrate + nitrate, low O2), time point: constant (~7 days, model-specific)	0.127	0.844	0.4	-0.415	–
in vitro model: dormancy (butyrate + nitrate, low O2), time point: terminal (~4-5 doublings, model-specific)	0.11	0.967	-0.312	0.312	1.35
in vitro model: standard 7H9 glycerol, time point: constant = terminal	0.0755	0.913	0.125	0.461	–
in vitro model: valerate, time point: constant (~7 days, model-specific)	0.0698	0.882	0.0142	-0.111	–
in vitro model: valerate, time point: terminal (~4-5 doublings, model-specific)	0.0514	0.919	0.0593	0.0754	-0.361

NNC(=O)c1ccncc1 [isoniazid] + CC(=O)NC[C@H]1CN(c2ccc(N3CCOCC3)c(F)c2)C(=O)O1 [linezolid] + CO[C@H]1/C=C/O[C@@]2(C)Oc3c(C)c(O)c4c(O)c(c(/C=N/N5CCN(C6CCCC6)CC5)c(O)c4c3C2=O)NC(=O)/C(C)=C\C=C\[C@H](C)[C@H](O)[C@@H](C)[C@@H](O)[C@@H](C)[C@H](OC(C)=O)[C@@H]1C [rifapentine]
Conditions	AUC25, [2]	Einf, [4]	GRinf, [5]	total FIC50, [1]	total FIC90, [3]
in vitro model: acidic pH 5.7, time point: constant (~7 days, model-specific)	0.0908	0.853	-0.0954	0.653	–
in vitro model: acidic pH 5.7, time point: terminal (~4-5 doublings, model-specific)	0.0757	0.977	-0.138	0.526	0.636
in vitro model: intracellular J774, time point: constant = terminal	–	0.946	-0.138	–	0.00443

Conditions	AUC25, [2]	Einf, [4]	GRinf, [5]	total FIC50, [1]	total FIC90, [3]
in vitro model: butyrate, time point: constant (~7 days, model-specific)	0.0823	0.894	0.1	0.461	1.07
in vitro model: butyrate, time point: terminal (~4-5 doublings, model-specific)	0.0501	0.94	0.0909	0.377	0.0682
in vitro model: cholesterol 0.05 mM, time point: constant (~7 days, model-specific)	0.153	0.735	-0.233	0.774	–
in vitro model: cholesterol 0.05 mM, time point: terminal (~4-5 doublings, model-specific)	0.125	0.921	-0.273	0.542	0.792
in vitro model: cholesterol-high 0.2 mM, time point: constant (~7 days, model-specific)	0.0853	0.833	-0.0945	0.52	–
in vitro model: cholesterol-high 0.2 mM, time point: terminal (~4-5 doublings, model-specific)	0.093	1	-0.883	0.739	0.834
in vitro model: dormancy (butyrate + nitrate, low O2), time point: constant (~7 days, model-specific)	0.0503	0.879	0.222	1.15	0.705
in vitro model: dormancy (butyrate + nitrate, low O2), time point: terminal (~4-5 doublings, model-specific)	0.0276	0.984	-0.167	0.72	0.385
in vitro model: standard 7H9 glycerol, time point: constant = terminal	0.0681	0.902	0.155	0.53	1.15
in vitro model: valerate, time point: constant (~7 days, model-specific)	0.0749	0.839	0.0814	0.038	–
in vitro model: valerate, time point: terminal (~4-5 doublings, model-specific)	0.0444	0.931	0.0271	0.299	0.267
